Results reported in PubChem BioAssay (NCI).
Values joined by “and” are separate entries in the source; they are usually repeats but may differ in a detail not shown here. Equal values may be shown once.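 Briefly, cells in 96-well plates were exposed to five compound concentrations for 48 h, and endpoints were estimated by linear interpolation. GI50 = concentration required for 50% inhibition of growth. At the TGI there is no net growth.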

Assays:
Assay in all cases: NCI-60 cell line screen, 48 h
786-0 renal = system: 786-0 renal
HCT-15 colon = system: HCT-15 colon
NCI-H522 lung = system: NCI-H522 lung
SK-MEL-28 melanoma = system: SK-MEL-28 melanoma
SNB-19 CNS = system: SNB-19 CNS
U251 CNS = system: U251 CNS
OVCAR-3 ovarian = system: OVCAR-3 ovarian
SK-MEL-5 melanoma = system: SK-MEL-5 melanoma
UACC-257 melanoma = system: UACC-257 melanoma
K-562 leukemia = system: K-562 leukemia

SMILES	GI50 (786-0 renal)	TGI (786-0 renal)	GI50 (HCT-15 colon) [µM]	TGI (HCT-15 colon)	GI50 (NCI-H522 lung)	TGI (NCI-H522 lung)	GI50 (SK-MEL-28 melanoma)	TGI (SK-MEL-28 melanoma)	GI50 (SNB-19 CNS)	TGI (SNB-19 CNS)	GI50 (U251 CNS)	TGI (U251 CNS)	GI50 (OVCAR-3 ovarian)	TGI (OVCAR-3 ovarian)	TGI (SK-MEL-5 melanoma)	GI50 (UACC-257 melanoma)	TGI (UACC-257 melanoma)	GI50 (K-562 leukemia) [µM]	TGI (K-562 leukemia) [µM]	GI50 (SK-MEL-5 melanoma)
COc1ccc(-c2ccc(/C=N/n3c(COc4ccccc4Cl)nn(CN4CCN(C)CC4)c3=S)o2)c([N+](=O)[O-])c1	17.4 µM	39.3 µM	17.4	38.3 µM	29.5 µM	> 100 µM	24.5 µM	69.4 µM	27.1 µM	> 100 µM	13.2 µM	27.8 µM								
C=C1C[C@](OC)([C@H](O)C(=O)N[C@@H](OC)[C@@H]2C[C@@H](O)C(C)(C)[C@@H](C[C@@H](COC)OC)O2)O[C@H](C)[C@@H]1C	0.0022 µM	0.0119 µM	0.00284	0.0248 µM	0.00194 µM	0.00725 µM	0.00129 µM	0.00383 µM	0.00149 µM	0.00645 µM	0.00175 µM	0.00769 µM	0.00117 µM	0.00368 µM	0.000262 µM	0.00211 µM	0.00885 µM			
Cc1ccc(C2NC(=S)NC3=C2CCOc2c3ccc3ccccc23)cc1 (configuration not stated)	> 100 µM	> 100 µM	> 100	> 100 µM	> 100 µM	> 100 µM	57.4 µM	> 100 µM	> 100 µM	> 100 µM	> 100 µM	> 100 µM				> 100 µM	> 100 µM	4.36	> 100	
COc1ccc(C2=NNC(=O)OC2c2ccccc2)cc1 (configuration not stated)		> 100 µM		> 100 µM				> 100 µM		> 100 µM		> 100 µM		> 100 µM			> 100 µM		> 100	
CN1CCCNc2c(c(=O)c2=O)NCCCN(C)CCCNc2c(c(=O)c2=O)NCCCN(C)CCCNc2c(c(=O)c2=O)NCCCN(C)CCCNc2c(c(=O)c2=O)NCCCN(C)CCCNc2c(c(=O)c2=O)NCCCN(C)CCCNc2c(c(=O)c2=O)NCCCN(C)CCCNc2c(c(=O)c2=O)NCCC1	4.29 µM	15.1 µM	5.19	22.5 µM	6.91 µM	> 50 µM	3.7 µM	16.2 µM	2.59 µM	33.9 µM	2.23 µM	> 50 µM	4.39 µM	15.1 µM	21.9 µM	3.61 µM	27 µM			6.69 µM
COc1cc2c(cc1OC)-c1cc3cc(OC)c(OC)cc3n1CC2		66.6 µM				> 100 µM		> 100 µM		95.8 µM		> 100 µM		> 100 µM			> 100 µM		> 100	
CCN(CC)c1cc(/C=C/c2ccc(OC)c(OC)c2)nc2cc(F)c(F)cc12	1.98 µM	4.77 µM	22.8	> 100 µM	6.35 µM	> 100 µM	14.9 µM	> 100 µM	2.34 µM	7.09 µM	2.18 µM	4.98 µM	5.54 µM	33.3 µM	> 100 µM	15.2 µM	> 100 µM			6.33 µM
N#CC(C(=O)/C(=N\Nc1nc(=S)[nH]n1N)C(C#N)c1ccc(Cl)cc1)c1ccc(Cl)cc1 (configuration not stated)		> 100 µM		> 100 µM				> 100 µM		> 100 µM		> 100 µM		> 100 µM			> 100 µM			
COC1(OC)CC2C=C(S(=O)(=O)c3ccccc3)C1N(Cc1ccccc1)C2=O (configuration not stated)		> 100 µM				33.9 µM		> 100 µM		> 100 µM		> 100 µM		56.6 µM	> 100 µM		> 100 µM		> 100	
Cn1c2c(c3ccccc31)C1CCCCC1C1C(=O)NC(=O)C21 (configuration not stated)		> 100 µM		> 100 µM				> 100 µM		> 100 µM		> 100 µM		58 µM	> 100 µM				> 100	
CSc1cnn(CCC#N)c(=O)n1		> 100 µM				> 100 µM		> 100 µM		> 100 µM		> 100 µM			> 100 µM		> 100 µM		> 100	
CC1/C=C/C=C/C=C/C=C/C=C/C=C/C=C/C(O[C@@H]2O[C@H](C)[C@H](O)[C@@H](O)[C@@H]2N)CC(O)C(C(=O)O)C(O)CC(=O)CC(O)CC(O)CC(O)CC(=O)CCCC(=O)CC(=O)OC1C(C)CC(C)C(O)CC(=O)c1ccc(N)cc1 (some centres not stated)	0.0591 µM and 0.172 µM	0.111 µM and 0.346 µM			0.0512 µM and 0.161 µM	0.0986 µM and 0.314 µM	0.0622 µM and 0.189 µM	0.108 µM and 0.356 µM	0.066 µM and 0.279 µM	0.147 µM and 1.09 µM	0.0552 µM and 0.204 µM	0.0996 µM and 0.49 µM	0.0631 µM and 0.374 µM		0.0961 µM and 0.496 µM	0.0544 µM and 0.233 µM	0.101 µM and 0.612 µM	0.0716	0.175	0.0522 µM and 0.212 µM
COc1cc2c(cc1OCCOS(C)(=O)=O)N=C[C@@H]1CCCN1C2=O	17 µM	30.7 µM	16.5	31.1 µM	10.9 µM	30.1 µM		61.5 µM		> 100 µM	17.1 µM	31.7 µM	16.3 µM	31.3 µM	42.2 µM	18.2 µM	42.8 µM			16.9 µM
CCCCCCCC/C=C/CCCCCCCCC1=NCCN1CCO	5.49 µM	28 µM	2.42	7.58 µM	6.34 µM	25.9 µM	10.5 µM	24.4 µM	7.21 µM	33.2 µM	1.78 µM	3.67 µM	11.5 µM	25.7 µM	19.9 µM	11.8 µM	25 µM			5.84 µM
COc1cc(C(=O)/C=C/c2cc(C(=O)c3cc(OC)c(OC)c(OC)c3)ccc2OC)ccc1N	1.54 µM	4.08 µM	0.37	2.12 µM			1.36 µM	3.75 µM			1.02 µM	2.22 µM	0.448 µM	4.17 µM	2.18 µM	1.32 µM	3.14 µM	0.386	> 100	1.02 µM
CCSCC(N)C(=O)O (configuration not stated)		> 100 µM		> 100 µM		> 100 µM		> 100 µM		> 100 µM		> 100 µM		> 100 µM	> 100 µM		> 100 µM			
CC1C[C@H](OC(N)=O)C(C)CC1=O (some centres not stated)		> 100 µM		> 100 µM						> 100 µM		> 100 µM		> 100 µM	> 100 µM		> 100 µM		> 100	
CC(C)c1ccccc1NC(=O)C(=O)Cc1nc2ccccc2s1		> 100 µM		> 100 µM		> 100 µM		> 100 µM		> 100 µM		> 100 µM		> 100 µM	> 100 µM		> 100 µM			
CCOC(=O)C(=O)Nc1c(F)cc(F)cc1Br		> 100 µM		> 100 µM				> 100 µM		> 100 µM		> 100 µM		> 100 µM	> 100 µM		> 100 µM		> 100	
COc1ccc2oc3c4c2c1CCC4CCC3=O (configuration not stated)		> 100 µM				> 100 µM		> 100 µM		> 100 µM		> 100 µM		> 100 µM	> 100 µM		31.2 µM		> 100	
COc1ccc(C(O)/C(=N\NC(N)=S)c2nc3ccc([N+](=O)[O-])cc3[nH]c2=O)cc1OC (configuration not stated)		> 100 µM				> 100 µM		> 100 µM				> 100 µM					> 100 µM		> 100	
CC[C@H]1CN2CCc3cc(OC)c(OC)cc3[C@@H]2C[C@@H]1C[C@H]1NCCc2cc(O)c(OC)cc21	0.00714 µM	0.0381 µM		0.373 µM and 0.557 µM				0.0678 µM and 0.0487 µM and 0.266 µM		0.0977 µM and 0.0271 µM				0.0774 µM and 0.287 µM	0.0424 µM and 0.0157 µM and 0.114 µM		0.104 µM and 0.346 µM		2.65	
COC(=O)c1ccc2c(c1)nc(-c1cc3ccccc3[nH]c1=O)n2-c1cc(C(C)(C)C)[nH]n1	3.79 µM	> 100 µM			1.19 µM	> 100 µM			7.59 µM	> 100 µM	0.987 µM	> 100 µM	4.5 µM	> 100 µM	> 100 µM			1.7	> 100	2.61 µM
CS(=O)CCCCCN=C=S (configuration not stated)	5.68 µM	19.5 µM	2.9	12.1 µM	1.99 µM	5.87 µM	4.07 µM	16.8 µM	16.1 µM	32.1 µM	4.42 µM	15.8 µM	3.07 µM	10.1 µM	17.9 µM	4.35 µM	19.7 µM			5.3 µM
COc1ccc(/C=C2\CCCCC2=O)cc1		> 100 µM		> 100 µM				> 100 µM				> 100 µM		> 100 µM	> 100 µM				> 100	
NC(=O)C1=NNc2ccccc2C(=O)N1c1ccccc1		> 100 µM		> 100 µM		> 100 µM		> 100 µM		> 100 µM		> 100 µM		> 100 µM	> 100 µM		> 100 µM			
Brc1ccc(-c2nnc(-c3nn(-c4ccccc4)c4nc5ccccc5nc34)o2)cc1		> 100 µM				> 100 µM		> 100 µM		> 100 µM		> 100 µM		> 100 µM	84.5 µM		> 100 µM		> 100	
